Reference: PubChem BioAssay AID248 (DTP/NCI, 2004)
Several values for one entry are separate records, joined by “and”; a condition that tells them apart may be missing. Equal entries are not always repeated. Toxic doses and inconclusive results are not listed.

System: L1210 leukemia ip in BDF1 mice, survival T/C
Assay: NCI In Vivo Anticancer Drug Screen. Data for tumor model L1210 Leukemia (intraperitoneal) in B6D2F1 (BDF1) mice
Conditions: endpoint: mean survival time, higher = longer survival
How it was run: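 Each compound was tested against a transplantable tumor grown in mice. The endpoint was survival, with treated animals benchmarked against vehicle controls as a simple ratio.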

[1] = dose: 100.0 mg/kg/injection, schedule: Q01DX001 (ip), vehicle: carboxymethylcellulose (CMC)
[2] = dose: 200.0 mg/kg/injection, schedule: Q01DX001 (ip), vehicle: carboxymethylcellulose (CMC)
[3] = dose: 400.0 mg/kg/injection, schedule: Q01DX001 (ip), vehicle: carboxymethylcellulose (CMC)
[4] = dose: 100.0 mg/kg/injection, schedule: Q01DX001 (ip), vehicle: Klucel (hydroxypropylcellulose) (HPC)
[5] = dose: 200.0 mg/kg/injection, schedule: Q01DX001 (ip), vehicle: Klucel (hydroxypropylcellulose) (HPC)
[6] = dose: 400.0 mg/kg/injection, schedule: Q01DX001 (ip), vehicle: Klucel (hydroxypropylcellulose) (HPC)
[7] = dose: 100.0 mg/kg/injection, schedule: Q04DX002 (ip), vehicle: Klucel (hydroxypropylcellulose) (HPC)
[8] = dose: 200.0 mg/kg/injection, schedule: Q04DX002 (ip), vehicle: Klucel (hydroxypropylcellulose) (HPC)
[9] = dose: 400.0 mg/kg/injection, schedule: Q04DX002 (ip), vehicle: Klucel (hydroxypropylcellulose) (HPC)
[10] = dose: 100.0 mg/kg/injection, schedule: Q01DX009 (ip), vehicle: Klucel (hydroxypropylcellulose) (HPC)
[11] = dose: 200.0 mg/kg/injection, schedule: Q01DX009 (ip), vehicle: Klucel (hydroxypropylcellulose) (HPC)
[12] = dose: 100.0 mg/kg/injection, schedule: Q04DX003 (ip), vehicle: Klucel (hydroxypropylcellulose) (HPC)
[13] = dose: 200.0 mg/kg/injection, schedule: Q04DX003 (ip), vehicle: Klucel (hydroxypropylcellulose) (HPC)
[14] = dose: 400.0 mg/kg/injection, schedule: Q01DX009 (ip), vehicle: Klucel (hydroxypropylcellulose) (HPC)
[15] = dose: 400.0 mg/kg/injection, schedule: Q04DX003 (ip), vehicle: Klucel (hydroxypropylcellulose) (HPC)
[16] = dose: 100.0 mg/kg/injection, schedule: Q04DX003 (ip), vehicle: saline with Tween-80
[17] = dose: 100.0 mg/kg/injection, schedule: Q01DX001 (ip), vehicle: saline
[18] = dose: 200.0 mg/kg/injection, schedule: Q01DX001 (ip), vehicle: saline
[19] = dose: 400.0 mg/kg/injection, schedule: Q01DX001 (ip), vehicle: saline
[20] = dose: 100.0 mg/kg/injection, schedule: Q01DX009 (ip), vehicle: saline with Tween-80
[21] = dose: 200.0 mg/kg/injection, schedule: Q01DX009 (ip), vehicle: saline with Tween-80
[22] = dose: 200.0 mg/kg/injection, schedule: Q04DX003 (ip), vehicle: saline with Tween-80
[23] = dose: 400.0 mg/kg/injection, schedule: Q01DX009 (ip), vehicle: saline with Tween-80
[24] = dose: 400.0 mg/kg/injection, schedule: Q04DX003 (ip), vehicle: saline with Tween-80

O=C(COc1cccc(Cl)c1)Nc1cccc(NC(=O)c2cccc(S(=O)(=O)F)c2)c1
T/C [1]: 88 % of control
T/C [2]: 88 % of control
T/C [3]: 97 % of control

O=c1cc[nH]c2n[nH]nc12
T/C [4]: 94 % of control
T/C [5]: 94 % of control
T/C [6]: 96 % of control

COC1OC2COCOC2C(OC(C)=O)C1OC(C)=O (configuration not stated)
T/C (dose: 50.0 mg/kg/injection, schedule: Q04DX002 (ip), vehicle: Klucel (hydroxypropylcellulose) (HPC)): 104 % of control
T/C [7]: 103 % of control and 100 % of control
T/C [8]: 95 % of control and 104 % of control and 92 % of control
T/C [9]: 103 % of control and 113 % of control

CCc1c(N)nc(N)nc1Nc1ccc(Cl)c(Cl)c1
T/C (dose: 100.0 mg/kg/injection, schedule: Q01DX Z (ip), vehicle: methylcellulose (MC)): 96 % of control

Cc1c(Cl)cccc1NC(=O)N1CCN(C)CC1
T/C [10]: 98 % of control and 107 % of control
T/C [7]: 106 % of control and 91 % of control
T/C [11]: 109 % of control and 92 % of control
T/C [8]: 101 % of control and 91 % of control
T/C [9]: 110 % of control and 90 % of control

O=[N+]([O-])c1cccc(N=Cc2ccccc2)c1
T/C [10]: 117 % of control
T/C [12]: 88 % of control
T/C [11]: 111 % of control
T/C [13]: 96 % of control
T/C [14]: 88 % of control
T/C [15]: 97 % of control

CN=NNc1ccccc1
T/C (dose: 12.0 mg/kg/injection, schedule: Q01DX009 (ip), vehicle: saline): 114 % of control
T/C (dose: 12.5 mg/kg/injection, schedule: Q01DX009 (ip), vehicle: Klucel (hydroxypropylcellulose) (HPC)): 100 % of control
T/C (dose: 18.0 mg/kg/injection, schedule: Q01DX009 (ip), vehicle: saline): 118 % of control
T/C (dose: 25.0 mg/kg/injection, schedule: Q01DX009 (ip), vehicle: Klucel (hydroxypropylcellulose) (HPC)): 97 % of control
T/C (dose: 50.0 mg/kg/injection, schedule: Q01DX009 (ip), vehicle: Klucel (hydroxypropylcellulose) (HPC)): 102 % of control
T/C (dose: 75.0 mg/kg/injection, schedule: Q04DX003 (ip), vehicle: saline with Tween-80): 113 % of control
T/C [10]: 156 % of control
T/C [16]: 121 % of control
T/C (dose: 150.0 mg/kg/injection, schedule: Q04DX003 (ip), vehicle: saline with Tween-80): 164 % of control
T/C (dose: 337.0 mg/kg/injection, schedule: Q04DX003 (ip), vehicle: saline with Tween-80): 153 % of control

CCCCCCCC(=O)CCC
T/C [10]: 108 % of control
T/C [12]: 98 % of control
T/C [11]: 104 % of control
T/C [13]: 89 % of control
T/C [14]: 102 % of control
T/C [15]: 89 % of control

CCCCOC(=O)c1ccc(NC(=O)Nc2cc(Cl)ccc2OC)cc1
T/C [10]: 98 % of control
T/C [11]: 98 % of control
T/C [14]: 90 % of control

CC(=O)Nc1ccc(NC(=O)Nc2ccc(Cl)cc2)cc1
T/C (dose: 25.0 mg/kg/injection, schedule: Q01DX001 (ip), vehicle: carboxymethylcellulose (CMC)): 92 % of control and 90 % of control
T/C (dose: 50.0 mg/kg/injection, schedule: Q01DX001 (ip), vehicle: carboxymethylcellulose (CMC)): 93 % of control and 97 % of control
T/C [1]: 95 % of control and 101 % of control and 87 % of control
T/C (dose: 100.0 mg/kg/injection, schedule: Q01DX009 (ip), vehicle: carboxymethylcellulose (CMC)): 93 % of control and 94 % of control
T/C (dose: 100.0 mg/kg/injection, schedule: Q04DX003 (ip), vehicle: carboxymethylcellulose (CMC)): 87 % of control and 88 % of control
T/C [2]: 94 % of control
T/C (dose: 200.0 mg/kg/injection, schedule: Q01DX009 (ip), vehicle: carboxymethylcellulose (CMC)): 92 % of control and 94 % of control
T/C (dose: 200.0 mg/kg/injection, schedule: Q04DX003 (ip), vehicle: carboxymethylcellulose (CMC)): 92 % of control and 90 % of control
T/C [3]: 95 % of control
T/C (dose: 400.0 mg/kg/injection, schedule: Q01DX009 (ip), vehicle: carboxymethylcellulose (CMC)): 104 % of control and 122 % of control
T/C (dose: 400.0 mg/kg/injection, schedule: Q04DX003 (ip), vehicle: carboxymethylcellulose (CMC)): 98 % of control and 87 % of control

CC1CCCC2OC(=O)C(C(N)=O)C12 (configuration not stated)
T/C [17]: 95 % of control
T/C [18]: 100 % of control
T/C [19]: 97 % of control

CNC(=O)ON=C(C)C
T/C (dose: 75.0 mg/kg/injection, schedule: Q01DX001 (ip), vehicle: saline): 102 % of control
T/C (dose: 75.0 mg/kg/injection, schedule: Q01DX009 (ip), vehicle: saline): 99 % of control
T/C (dose: 150.0 mg/kg/injection, schedule: Q01DX001 (ip), vehicle: saline): 102 % of control
T/C (dose: 150.0 mg/kg/injection, schedule: Q01DX009 (ip), vehicle: saline): 94 % of control
T/C (dose: 300.0 mg/kg/injection, schedule: Q01DX001 (ip), vehicle: saline): 109 % of control
T/C (dose: 300.0 mg/kg/injection, schedule: Q01DX009 (ip), vehicle: saline): 108 % of control

O=C(CN1CCOCC1)Nc1cccc(C(F)(F)F)c1
T/C [20]: 96 % of control
T/C [16]: 101 % of control
T/C [21]: 104 % of control
T/C [22]: 111 % of control
T/C [23]: 109 % of control
T/C [24]: 97 % of control

O=C(c1ccc([N+](=O)[O-])cc1)c1ccn[nH]1
T/C [4]: 103 % of control
T/C [5]: 99 % of control
T/C [6]: 94 % of control

CCCCCCCCCCCCOc1ccc(C=O)cc1OC
T/C [12]: 95 % of control
T/C [13]: 98 % of control
T/C [15]: 106 % of control

O=C(Nc1ccc(S(=O)(=O)NC2CCCCC2)cc1)OCc1ccccc1
T/C [17]: 95 % of control
T/C [18]: 89 % of control
T/C [19]: 95 % of control

O=Cc1ccc(O)c(Br)c1
T/C [20]: 100 % of control
T/C [21]: 109 % of control
T/C [23]: 88 % of control

CCN(CC)C(=O)c1c(Cl)n(C)c2ccccc12
T/C (dose: 12.5 mg/kg/injection, schedule: Q04DX003 (ip), vehicle: Klucel (hydroxypropylcellulose) (HPC)): 95 % of control
T/C (dose: 25.0 mg/kg/injection, schedule: Q04DX003 (ip), vehicle: Klucel (hydroxypropylcellulose) (HPC)): 104 % of control
T/C (dose: 50.0 mg/kg/injection, schedule: Q04DX003 (ip), vehicle: Klucel (hydroxypropylcellulose) (HPC)): 104 % of control

Cc1ncc(C(O)(c2ccccc2)C(C)C)n1Cc1ccccc1 (configuration not stated)
T/C (dose: 100.0 mg/kg/injection, schedule: Q01DX001 (ip), vehicle: saline with Tween-80): 94 % of control
T/C [20]: 95 % of control and 96 % of control
T/C (dose: 100.0 mg/kg/injection, schedule: Q04DX002 (ip), vehicle: saline with Tween-80): 95 % of control and 97 % of control
T/C [16]: 101 % of control
T/C (dose: 200.0 mg/kg/injection, schedule: Q01DX001 (ip), vehicle: saline with Tween-80): 92 % of control
T/C [21]: 95 % of control and 108 % of control
T/C (dose: 200.0 mg/kg/injection, schedule: Q04DX002 (ip), vehicle: saline with Tween-80): 93 % of control and 113 % of control
T/C [22]: 97 % of control
T/C (dose: 400.0 mg/kg/injection, schedule: Q01DX001 (ip), vehicle: saline with Tween-80): 94 % of control
T/C [23]: 102 % of control
T/C (dose: 400.0 mg/kg/injection, schedule: Q04DX002 (ip), vehicle: saline with Tween-80): 98 % of control and 103 % of control
T/C [24]: 101 % of control

O=C(COc1ccc(Cl)cc1)C1CSc2ccc3ccccc3c21 (configuration not stated)
T/C (dose: 100.0 mg/kg/injection, schedule: Q04DX003 (ip), vehicle: saline sonified): 88 % of control
T/C (dose: 200.0 mg/kg/injection, schedule: Q04DX003 (ip), vehicle: saline sonified): 89 % of control
T/C (dose: 400.0 mg/kg/injection, schedule: Q04DX003 (ip), vehicle: saline sonified): 88 % of control
